These results are taken from US20230295197A1, “STAT5 and STAT6 Degraders and Uses Thereof” (REGENTS OF THE UNIVERSITY OF MICHICAN, priority 2022, published 2023).

Like-named read-outs stand apart in the source and are kept apart here.

The experiment has as its target T1, STAT6 (Homo sapiens, UniProt P42226).
T1 construct: endogenous in cells; host or cells: MOLM-16, KU-812, SKNO1, MB231, L1236
T1 sequence (P42226 1-847): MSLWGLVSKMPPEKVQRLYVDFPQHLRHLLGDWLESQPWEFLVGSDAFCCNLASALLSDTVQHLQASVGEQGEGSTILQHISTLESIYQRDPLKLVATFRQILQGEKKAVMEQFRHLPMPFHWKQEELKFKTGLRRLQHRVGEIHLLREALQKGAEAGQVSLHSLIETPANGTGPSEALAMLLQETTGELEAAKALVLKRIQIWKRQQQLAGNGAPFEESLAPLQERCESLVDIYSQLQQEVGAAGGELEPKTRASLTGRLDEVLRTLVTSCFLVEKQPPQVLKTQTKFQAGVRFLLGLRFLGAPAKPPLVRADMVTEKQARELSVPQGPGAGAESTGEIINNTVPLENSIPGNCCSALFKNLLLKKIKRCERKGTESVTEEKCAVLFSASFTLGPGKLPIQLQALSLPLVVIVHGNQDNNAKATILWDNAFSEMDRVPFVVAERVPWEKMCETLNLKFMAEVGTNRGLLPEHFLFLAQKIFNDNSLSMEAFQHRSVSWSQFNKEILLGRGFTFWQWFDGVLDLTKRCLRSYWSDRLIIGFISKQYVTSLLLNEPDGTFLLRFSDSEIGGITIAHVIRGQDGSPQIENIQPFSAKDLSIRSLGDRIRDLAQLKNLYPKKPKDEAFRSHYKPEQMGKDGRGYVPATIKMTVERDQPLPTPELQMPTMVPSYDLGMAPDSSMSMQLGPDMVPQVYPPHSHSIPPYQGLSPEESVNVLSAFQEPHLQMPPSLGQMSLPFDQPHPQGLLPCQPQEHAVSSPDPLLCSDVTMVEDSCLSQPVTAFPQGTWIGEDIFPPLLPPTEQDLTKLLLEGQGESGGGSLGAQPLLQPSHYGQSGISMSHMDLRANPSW
In words: Immunoblotting (Western blot) analysis of STAT6 degradation efficiency of degraders in treated cells. In kind it is cell-based. Here is the method:
Evaluation of the degradation efficiency of degraders may be accomplished by immunoblotting analysis. The representative general protocol is the following:
Cells are maintained in the appropriate culture medium with 10% FBS at 37° C. and an atmosphere of 5% CO2. Cell lines are used within three months of thawing fresh vials. Cells are lysed 1× Cell Lysis Buffer (Cell Signaling Technology, #9803), resolved by SDS-PAGE NuPAGE gel (Thermo Fisher Scientific), and transferred to a PVDF membrane (Millipore). Membranes are blocked using Odyssey TBS Blocker Buffer (LI-COR). IRDye 680RD and 800CW Dye-labeled secondary antibodies (LI-COR) are used. The washed membranes are scanned using Odyssey CLx imager (LI-COR). The intensity of Western blot signaling is quantitated using the Odyssey software. Primary antibodies used are: STAT5 Rabbit mAb (Cell Signaling Technology, #94205), STAT6 Rabbit mAb (Cell Signaling Technology, #5397) and GAPDH mouse monoclonal antibody (Santa Cruz Biotechnology, sc-47724).
To evaluate the degradation efficiency of degraders, immunoblotting analysis was performed. The general protocol is the following.
About 1 million cells for each data point were treated with compounds at indicated concentrations and durations. Untreated and treated cells in cell culture medium were transferred into tubes, followed by centrifugation at 3,000 rpm and 4° C. for 6 min Supernatants were removed from tubes and radioimmunoprecipitation assay (RIPA) lysis buffer supplemented with 1% protease inhibitor cocktail (Fisher Scientific cat. PI87786) and phosphatase inhibitor (Roche cat. 04906837001) were added to tubes containing the remaining cell pellets. The tubes were then left on ice for 30 min and placed in a −80° C. freezer. Subsequently they were thawed in 37° C. water, then centrifuged at 14,000 rpm for 15 min and the cell lysates transferred to new tubes. The concentration of total proteins in each tube was calculated using the Pierce BCA protein Assay kit (cat. 23225). Based on the calculated protein concentration, cell lysates containing approximately the same amount of proteins were transferred to new tubes, then distilled water and 4× Protein Sample Loading Buffer for Western Blots (LI-COR cat. 928-40004) supplemented with 20% of mercaptoethanol (Sigma Aldrich cat. M6250) were added on ice. The cell lysates were then reduced and denatured at 95° C. for 5 min. From the tubes containing cell lysates an equal amount of protein samples (20-40 μg) was loaded into precast 8%, 10%, 4%-12%, or 4%-20% Tris-glycine gels (Novex) filled with Tris-glycine SDS running buffer. After the proteins were resolved, they were transferred onto Immobile-FL PVDF Membrane (Millipore Sigma cat. IPFL00010), using Mini Trans-Blot Electrophoretic Transfer Cell (Bio-Rad 1703930). The membranes were blocked with Intercept Blocking Buffer (LI-COR cat. 927-70001) in LI-COR Western Blot boxes for 1 h at rt. The membranes were washed with 1× Tris-buffered saline-Tween-20 (TBST, 1× solution was made from 20×TBST solution, ThermoFisher Scientific cat. 28360) for 5 min 4 times. The membranes were incubated overnight at 4° C. in Intercept Blocking Buffer supplemented with primary antibodies (normally antibody:buffer 1:1000) and Tween-20. The membranes were washed with TBST for 5 min 4 times and were incubated with Intercept Blocking Buffer supplemented with IRDye 800CE Secondary Antibodies, IRDye 680RD Secondary Antibodies (LI-COR biosciences), Tween-20, and 10% SDS solution, for 1 h at rt. The membranes were then washed with TBST for 5 min 4 times and rinsed with deionized water before drying and scanning with Odyssey Dlx Amazing System (LI-COR). The immunoblots were finally quantified by the software.

Setting [1] is: L1236 cells, read-out: DC50 S6 L1236.
Setting [2] is: MB231 cells, read-out: DC50 S6 MB231.

By DC50 is commonly meant the concentration at which degradation of the target reaches its halfway point. As to `Cc1ncsc1-c1ccc(CNC(=O)[C@@H]2C[C@@H](O)CN2C(=O)[C@@H](NC(=O)CCCCNC(=O)CO[C@@H]2C[C@@H](C(=O)N(C)c3ccc(Br)cc3)N(C(=O)[C@@H](NC(=O)c3cc4cc(C(F)(F)P(=O)(O)O)ccc4s3)C(C)(C)C)C2)C(C)(C)C)cc1` [Compound 416, ((2-(((S)-1-((2S,4R)-2-((4-bromophenyl)(methyl)carbamoyl)-4-(2-((5-(((S)-1-((2S,4R)-4-hydroxy-2-((4-(4-methylthiazol-5-yl)benzyl)carbamoyl)pyrrolidin-1-yl)-3,3-dimethyl-1-oxobutan-2-yl)amino)-5-oxopentyl)amino)-2-oxoethoxy)pyrrolidin-1-yl)-3,3-dimethyl-1-oxobutan-2-yl)carbamoyl)benzo[b]thiophen-5-yl)difluoromethyl)phosphonic acid], the 50% degradation concentration (DC50) is, setting by setting: under setting [1], > 10 µM; under setting [2], > 10 µM.
In the case of `Cc1ncsc1-c1ccc(CNC(=O)[C@@H]2C[C@@H](O)CN2C(=O)[C@@H](NC(=O)CCCCCNC(=O)CO[C@@H]2C[C@@H](C(=O)N(C)c3ccc(Br)cc3)N(C(=O)[C@@H](NC(=O)c3cc4cc(C(F)(F)P(=O)(O)O)ccc4s3)C(C)(C)C)C2)C(C)(C)C)cc1` [Compound 417, ((2-(((S)-1-((2S,4R)-2-((4-bromophenyl)(methyl)carbamoyl)-4-(2-((6-(((S)-1-((2S,4R)-4-hydroxy-2-((4-(4-methylthiazol-5-yl)benzyl)carbamoyl)pyrrolidin-1-yl)-3,3-dimethyl-1-oxobutan-2-yl)amino)-6-oxohexyl)amino)-2-oxoethoxy)pyrrolidin-1-yl)-3,3-dimethyl-1-oxobutan-2-yl)carbamoyl)benzo[b]thiophen-5-yl)difluoromethyl)phosphonic acid], the DC50 is, setting by setting: under setting [1], > 10 µM; under setting [2], > 10 µM.
In the case of `Cc1ncsc1-c1ccc(CNC(=O)[C@@H]2C[C@@H](O)CN2C(=O)[C@@H](NC(=O)CCCCCCNC(=O)CO[C@@H]2C[C@@H](C(=O)N(C)c3ccc(Br)cc3)N(C(=O)[C@@H](NC(=O)c3cc4cc(C(F)(F)P(=O)(O)O)ccc4s3)C(C)(C)C)C2)C(C)(C)C)cc1` [Compound 418, ((2-(((S)-1-((2S,4R)-2-((4-bromophenyl)(methyl)carbamoyl)-4-(2-((7-(((S)-1-((2S,4R)-4-hydroxy-2-((4-(4-methylthiazol-5-yl)benzyl)carbamoyl)pyrrolidin-1-yl)-3,3-dimethyl-1-oxobutan-2-yl)amino)-7-oxoheptyl)amino)-2-oxoethoxy)pyrrolidin-1-yl)-3,3-dimethyl-1-oxobutan-2-yl)carbamoyl)benzo[b]thiophen-5-yl)difluoromethyl)phosphonic acid], the DC50 is, setting by setting: under setting [1], > 10 µM; under setting [2], > 10 µM.
As to `Cc1ncsc1-c1ccc(CNC(=O)[C@@H]2C[C@@H](O)CN2C(=O)[C@@H](NC(=O)CCCCCCCNC(=O)CO[C@@H]2C[C@@H](C(=O)N(C)c3ccc(Br)cc3)N(C(=O)[C@@H](NC(=O)c3cc4cc(C(F)(F)P(=O)(O)O)ccc4s3)C(C)(C)C)C2)C(C)(C)C)cc1` [Compound 419, ((2-(((S)-1-((2S,4R)-2-((4-bromophenyl)(methyl)carbamoyl)-4-(2-((8-(((S)-1-((2S,4R)-4-hydroxy-2-((4-(4-methylthiazol-5-yl)benzyl)carbamoyl)pyrrolidin-1-yl)-3,3-dimethyl-1-oxobutan-2-yl)amino)-8-oxooctyl)amino)-2-oxoethoxy)pyrrolidin-1-yl)-3,3-dimethyl-1-oxobutan-2-yl)carbamoyl)benzo[b]thiophen-5-yl)difluoromethyl)phosphonic acid], the DC50 runs as follows: under setting [1], > 10 µM; under setting [2], > 10 µM.
Regarding `Cc1ncsc1-c1ccc(CNC(=O)[C@@H]2C[C@@H](O)CN2C(=O)[C@@H](NC(=O)CCCCCCCCNC(=O)CO[C@@H]2C[C@@H](C(=O)N(C)c3ccc(Br)cc3)N(C(=O)[C@@H](NC(=O)c3cc4cc(C(F)(F)P(=O)(O)O)ccc4s3)C(C)(C)C)C2)C(C)(C)C)cc1` [Compound 420, ((2-(((S)-1-((2S,4R)-2-((4-bromophenyl)(methyl)carbamoyl)-4-(2-((9-(((S)-1-((2S,4R)-4-hydroxy-2-((4-(4-methylthiazol-5-yl)benzyl)carbamoyl)pyrrolidin-1-yl)-3,3-dimethyl-1-oxobutan-2-yl)amino)-9-oxononyl)amino)-2-oxoethoxy)pyrrolidin-1-yl)-3,3-dimethyl-1-oxobutan-2-yl)carbamoyl)benzo[b]thiophen-5-yl)difluoromethyl)phosphonic acid], the DC50 is, setting by setting: under setting [1], > 10 µM; under setting [2], > 10 µM.
For `Cc1ncsc1-c1ccc(CNC(=O)[C@@H]2C[C@@H](O)CN2C(=O)[C@@H](NC(=O)CCCCCCCCCNC(=O)CO[C@@H]2C[C@@H](C(=O)N(C)c3ccc(Br)cc3)N(C(=O)[C@@H](NC(=O)c3cc4cc(C(F)(F)P(=O)(O)O)ccc4s3)C(C)(C)C)C2)C(C)(C)C)cc1` [Compound 421, ((2-(((S)-1-((2S,4R)-2-((4-bromophenyl)(methyl)carbamoyl)-4-(2-((10-(((S)-1-((2S,4R)-4-hydroxy-2-((4-(4-methylthiazol-5-yl)benzyl)carbamoyl)pyrrolidin-1-yl)-3,3-dimethyl-1-oxobutan-2-yl)amino)-10-oxodecyl)amino)-2-oxoethoxy)pyrrolidin-1-yl)-3,3-dimethyl-1-oxobutan-2-yl)carbamoyl)benzo[b]thiophen-5-yl)difluoromethyl)phosphonic acid], the DC50 by setting is: under setting [1], > 10 µM; under setting [2], > 10 µM.
Regarding `Cc1cc([C@H](C(=O)N2C[C@H](O)C[C@H]2C(=O)N[C@@H](CC(=O)NCCCCCCNC(=O)CO[C@@H]2C[C@@H](C(=O)N(C)c3ccc(Br)cc3)N(C(=O)[C@@H](NC(=O)c3cc4cc(C(F)(F)P(=O)(O)O)ccc4s3)C(C)(C)C)C2)c2ccc(-c3scnc3C)cc2)C(C)C)on1` [Compound 422, ((2-(((S)-1-((2S,4R)-2-((4-bromophenyl)(methyl)carbamoyl)-4-(2-((6-((S)-3-((2S,4R)-4-hydroxy-1-((R)-3-methyl-2-(3-methylisoxazol-5-yl)butanoyl)pyrrolidine-2-carboxamido)-3-(4-(4-methylthiazol-5-yl)phenyl)propanamido)hexyl)amino)-2-oxoethoxy)pyrrolidin-1-yl)-3,3-dimethyl-1-oxobutan-2-yl)carbamoyl)benzo[b]thiophen-5-yl)difluoromethyl)phosphonic acid], the DC50 (MOLM-16 cells, class symbols, read-out: DC50 S6 MOLM-16) was > 10 µM.
